Measured values as given in the NIST ThermoML archive (doi:10.1016/j.fluid.2014.09.015).
± gives the expanded uncertainty stated by the source.

Conditions: Liquid, Closed cell (Static) method

Q: For `CC(O)CO` (stereo not given) [1,2-propanediol], which “vapor or sublimation pressure” value (350.15 K) is on record?
A: 0.84 ± 0.023 kPa

Q: What about the “vapor or sublimation pressure” value (355.15 K) of the same compound?
A: 1.131 ± 0.031 kPa

Q: And the “vapor or sublimation pressure” value (360.15 K)?
A: 1.506 ± 0.037 kPa

Q: What about the “vapor or sublimation pressure” value (365.15 K) of the same compound?
A: 1.987 ± 0.045 kPa

Q: And the “vapor or sublimation pressure” value (370.15 K)?
A: 2.596 ± 0.049 kPa

Q: What about the “vapor or sublimation pressure” value (375.15 K) of the same compound?
A: 3.361 ± 0.031 kPa

Q: What about the “vapor or sublimation pressure” value (380.15 K) of the same compound?
A: 4.316 ± 0.039 kPa

Q: What about the “vapor or sublimation pressure” value (385.15 K) of the same compound?
A: 5.496 ± 0.047 kPa

Q: And the “vapor or sublimation pressure” value (390.15 K)?
A: 6.946 ± 0.051 kPa

Q: What about the “vapor or sublimation pressure” value (395.15 K) of the same compound?
A: 8.715 ± 0.052 kPa

Q: What about the “vapor or sublimation pressure” value (400.15 K) of the same compound?
A: 10.86 ± 0.067 kPa

Q: What about the “vapor or sublimation pressure” value (405.15 K) of the same compound?
A: 13.44 ± 0.074 kPa

Q: What about the “vapor or sublimation pressure” value (410.15 K) of the same compound?
A: 16.53 ± 0.062 kPa

Q: And the “vapor or sublimation pressure” value (415.15 K)?
A: 20.22 ± 0.068 kPa

Q: What about the “vapor or sublimation pressure” value (420.15 K) of the same compound?
A: 24.59 ± 0.082 kPa
